Experiment [1] has as its target D(2) dopamine receptor (Canis lupus familiaris, UniProt Q9GJU1).
In experiment [2] the target is T1, 5-hydroxytryptamine receptor 2C (Canis lupus familiaris, UniProt Q60F97).
T1 sequence (Q60F97 whole entry): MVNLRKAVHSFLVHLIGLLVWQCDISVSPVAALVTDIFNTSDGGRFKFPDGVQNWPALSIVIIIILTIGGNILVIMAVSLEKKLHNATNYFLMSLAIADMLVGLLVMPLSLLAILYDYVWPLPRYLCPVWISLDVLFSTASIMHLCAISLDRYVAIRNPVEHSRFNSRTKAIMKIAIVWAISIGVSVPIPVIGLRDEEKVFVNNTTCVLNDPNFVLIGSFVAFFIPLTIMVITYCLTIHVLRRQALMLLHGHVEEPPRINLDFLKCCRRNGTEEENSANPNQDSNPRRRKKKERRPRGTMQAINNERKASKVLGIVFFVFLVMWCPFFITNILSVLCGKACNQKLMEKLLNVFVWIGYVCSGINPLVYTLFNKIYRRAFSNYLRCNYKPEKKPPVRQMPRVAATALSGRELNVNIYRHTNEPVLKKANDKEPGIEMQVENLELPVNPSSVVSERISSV

D(2) dopamine receptor, sequence (Q9GJU1 whole entry): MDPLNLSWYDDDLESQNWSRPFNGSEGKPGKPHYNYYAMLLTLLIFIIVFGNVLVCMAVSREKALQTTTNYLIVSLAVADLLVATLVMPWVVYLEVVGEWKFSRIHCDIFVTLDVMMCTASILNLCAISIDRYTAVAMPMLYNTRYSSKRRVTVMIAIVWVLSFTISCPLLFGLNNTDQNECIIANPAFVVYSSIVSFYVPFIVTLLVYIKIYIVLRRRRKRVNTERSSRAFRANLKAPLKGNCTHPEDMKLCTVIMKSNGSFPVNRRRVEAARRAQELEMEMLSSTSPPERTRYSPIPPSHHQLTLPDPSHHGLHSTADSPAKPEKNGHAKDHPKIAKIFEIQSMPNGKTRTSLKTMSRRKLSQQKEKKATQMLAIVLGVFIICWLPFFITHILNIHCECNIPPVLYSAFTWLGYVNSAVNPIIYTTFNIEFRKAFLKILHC

In the case of `OCCN1CCN(CC/C=C2/c3ccccc3Sc3ccc(C(F)(F)F)cc32)CC1` [(cis) 2-{4-[3-(2-Trifluoromethyl-thioxanthen-9-ylidene)-propyl]-piperazin-1-yl}-ethanol(Flupentixol)], the affinity in experiment [1] corresponds to a Ki of 30 nM.
For the molecule `O=C(c1ccc(F)cc1)C1CCN(CCn2c(=O)[nH]c3ccccc3c2=O)CC1` [3-(2-{4-[(4-fluorophenyl)carbonyl]piperidin-1-yl}ethyl)-1,2,3,4-tetrahydroquinazoline-2,4-dione], the Ki (as a rule, a measure of affinity in units of concentration, obtained from inhibition or displacement) was found to be 13 nM in experiment [2] and 166 nM in experiment [1].
Molecule `NCCc1ccc(O)c(O)c1` displayed an inhibition constant (Ki) in experiment [1] greater than 10000 nM.
Same read-out and setting: as for `NCCc1c[nH]c2ccc(O)cc12` [[3H]-5-HT], the figure is greater than 10000 nM.
With `CN1CCN2c3ccccc3Cc3ccccc3[C@H]2C1` [MIANSERIN (+)], the Ki amounted to 2.8 nM in experiment [2] and 161 nM in experiment [1].

The record behind these values is BindingDB's records for PubMed 2971798 (University of Pennsylvania, 1988).
